Assay results published in ChEMBL document CHEMBL1144268, “Unified Markov thermodynamics based on stochastic forms to classify drugs considering molecular structure, partition system, and biological species: distribution of the antimicrobial G1 on rat tissues” (2005).

Experiments:
Type in all cases: functional
Rattus norvegicus [1] = species on record: Rattus norvegicus; assay: Partition coefficient in rat lung
Rattus norvegicus [2] = species on record: Rattus norvegicus; assay: Partition coefficient in rat liver
Rattus norvegicus [3] = species on record: Rattus norvegicus; assay: Partition coefficient in rat spleen
Rattus norvegicus [4] = species on record: Rattus norvegicus; assay: Partition coefficient in rat adipose tissue
Rattus norvegicus [5] = species on record: Rattus norvegicus; assay: Plasma concentration measured in rat lung after treatment with the compound
Rattus norvegicus [6] = species on record: Rattus norvegicus; assay: Plasma concentration measured in rat liver after treatment with the compound
Rattus norvegicus [7] = species on record: Rattus norvegicus; assay: Plasma concentration measured in rat spleen after treatment with the compound
Rattus norvegicus [8] = species on record: Rattus norvegicus; assay: Plasma concentration measured in rat adipose tissue after treatment with the compound
Rattus norvegicus [9] = species on record: Rattus norvegicus; assay: Plasma concentration measured in rat plasma after treatment with the compound

O=[N+]([O-])/C(Br)=C/C1CCC(Br)O1 (centres undefined) showed a PC (Rattus norvegicus [1]) of 1.91, a PC (Rattus norvegicus [2]) of 4.75 and a PC (Rattus norvegicus [3]) of 1.29. It also gave a PC (Rattus norvegicus [4]) of 3.17, a C (Rattus norvegicus [5]) of 17.04 mg/mL and a C (Rattus norvegicus [6]) of 42.25 mg/mL. The C (Rattus norvegicus [7]) was 11.47 mg/mL, the C (Rattus norvegicus [8]) was 28.19 mg/mL and the C (Rattus norvegicus [9]) was 8.9 mg/mL.
